Source: patent publication US9650420B2, “Peptides for preventing or treating bone diseases and use thereof” (KYUNGPOOK NATIONAL UNIVERSITY INDUSTRY—ACADEMIC COOPERATION …, priority 2015, dated 2017)
Where no end group is shown, it is not given here.

How the values were obtained:
[1] = system: adhesion factors (Sdf-1a, Kitl, Angpt1, IL7, Vcam1, Spp1) for hematopoietic stem cells; test: Expression level of adhesion factors for hematopoietic stem cells in bone marrow of normal mice (real-time quantitative PCR); format: in vivo, C57BL/6 mice; conditions: normal mouse, 50 μg/kg intravenous injection to tail, bone marrow harvested after 60 minutes; p<0.05
Procedure: Osteopep1 used herein was produced by PEPTRON. For in vitro experiment, 0 nM Osteopep1 and 10 nM Osteopep1 were diluted in respective media and then injected. Further, for in vivo experiment, three mice per group, fifteen mice in total, were anesthetized with a mixed solution of 100 mg/kg of ketamine and 10 mg/kg of xylazine. Further, the each mouse was administered with 50 μg/kg of Osteopep1 and 100 μl of PBS (Gibco) by intravenous injection to its tail.
(§1) In order to measure expression levels of adhesion factors (Sdf-1a, Kitl, Angpt1, IL7, Vcam1, Spp1) for hematopoietic stem cells present in osteoblasts, a real-time quantitative PCR was used.
(§2) An RNeasy Plus mini kit (Qiagen, Korea, Ltd.) was used to extract total RNA from a cell eluent and bone marrow cells. A kit produced by Clontech (Mountain View, Calif.) was used to synthesize cDNA from 5 μg of the total RNA. Further, a Corbett research RG-6000 real-time PCR device was used to perform a real-time quantitative PCR repeatedly for 40 cycles under a condition of 95° C. for 10 minutes; 95° C. for 10 seconds; 58° C. for 15 seconds; and 72° C. for 20 seconds per cycle. […]

[2] = system: bone marrow hematopoietic progenitor cells in blood; test: Colony-forming unit (CFU) assay: number of bone marrow hematopoietic progenitor cells in blood of normal mice; format: in vivo, C57BL/6 mice; conditions: normal mouse, 50 μg/kg intravenous injection to tail, blood collected after 60 minutes; p<0.05
Procedure: In order to measure the number of bone marrow hematopoietic progenitor cells in blood of a mouse, CFU assays were conducted. A mouse was anesthetized, and then, 500 μl to 700 μl of blood was collected from the heart into a heparin tube. Then, the collected blood was put into an ammonium chloride solution (Stem Cell Technologies, Inc. 1:10) and then placed in ice for 15 minutes, and red blood cells were removed. The resultant solution was shaken every 2 to 3 minutes to remove red blood cells well, and then, centrifuged for 7 minutes at 1000 rpm. The supernatant was removed, and the resultant solution was washed with IMDM (Gibco) supplied with 2% fetal bovine serum (FBS) (Gibco). The washed cells (3×10^5 per mouse) were divided into three 35 mm dishes (1×10^5 per dish) respectively including methylcellulose-based media (Methocult, Stem cell), and then, cultured for 2 weeks. Then, the number of colonies in the flask was counted. In order to check whether mobilization of bone marrow hematopoietic progenitor cells to blood is induced by a decrease in expression level of the adhesion factors caused by administration of Osteopep1 of the present disclosure, a mouse was administered with 50 μg/kg of Osteopep1 by intravenous injection to its tail, and after 60 minutes, blood was collected from the heart. Then, a CFU (Colony-forming unit) assay was conducted thereto.

[3] = system: bone marrow hematopoietic stem cells (Lineage, Sca-1, c-kit); test: Flow cytometry (FACs): number of bone marrow hematopoietic stem cells in bone marrow of normal mice; format: in vivo, C57BL/6 mice; conditions: 50 μg/kg vs PBS, bone marrow harvested after 60 minutes, p<0.05
Procedure: In order to find out any change in the number of bone marrow hematopoietic stem cells present in bone marrow of mice, Osteopep1 and PBS were injected to normal mice, respectively. After 60 minutes, bone marrow was harvested, and FACs was conducted to the harvested bone marrow by using three kinds of antibodies including Lineage, Sca-1, and c-kit as markers of bone marrow hematopoietic stem cells.
For analyzing bone marrow hematopoietic stem cells, red blood cells were removed from bone marrow, which was harvested from the tibias and the femurs of a 4-week- to 6-week-old C57BL/6 mouse, with an ammonium chloride solution (Stem Cell Technologies, Inc. 1:4) and then, the bone marrow was washed with a PBS (Gibco) solution including 10% fetal bovine serum (FBS) (Gibco) and 1% sodium azide (Sigma-Aldrich) and centrifuged for 10 minutes at 300×g. The hematopoietic cells included in the bone marrow were removed with MACs beads (Miltenyi Biotec) by using a biotinylated lineage antibody (Miltenyi Biotec), and the remaining cells were reacted at 4° C. for 30 minutes by using Sca-1-PECY7, c-kit-APC, CD150-PE, and CD48-FITC antibodies (BD science) and then analyzed with a flow cytometer LSRII (BD science).
Firstly, normal mice were divided into two groups each including 3 mice, and the respective groups were administered with 50 μg/kg of Osteopep1 and 100 μl of PBS (Gibco). […]

[4] = system: adhesion factors for hematopoietic stem cells present in osteoblasts; test: Expression level of adhesion factors in osteoblasts differentiated from BM-MSC (real-time quantitative PCR); format: cell-based, C57BL/6 mouse; conditions: osteoblasts treated with 0 nM and 10 nM for three days, compared with untreated Control; p<0.05
Source text: After a 4-week- to 6-week-old C57BL/6 mouse was anesthetized and sacrificed, the tibias and the femurs were removed. Bone marrow was harvested from the tibias and the femurs, and a single cell suspension was obtained by using a 40 μm cell strainer (Becton-Dickinson LAβware, Franklin Lakes, N.J.). About 10^7 cells were divided in a 75-cm^2 flask including Mesenchymal Stem Cell Stimulatory Supplements (Stem Cell Technologies, Inc.) added with antibiotics and MesenCult™ MSC Basal medium. After being cultured for one week, the cells were cultured for three weeks in StemXVivo Osteogenic/Adipogenic Base Media (R&D systems) added with StemXVivo Osteogenic supplement (20×) and penicillin-streptomycin (100×) for differentiation into osteoblasts. The culture media were replaced every 2 to 3 days.
as §1
as §2, with “A kit produced by Clontech (Mountain View, Calif.) was used to synthesize cDNA from 5 μg of the total RNA.” left out

[5] = system: adhesion factors (Sdf-1a, Kitl, Angpt1, IL7, Vcam1, Spp1) for hematopoietic stem cells; test: Expression of adhesion factors for bone marrow hematopoietic stem cells in osteoporosis model (real-time quantitative PCR); format: in vivo, mice; conditions: osteoporosis (ovariectomy) models, 50 μg/kg intraperitoneally every 12 hours for 3 weeks; p<0.05
Procedure: (§3) After 1 week, 50 μg/kg of Osteopep1 (PEPTRON) and 100 μl of PBS (Gibco) were intraperitoneally administered every 12 hours twice per day for 3 weeks.
as §1
An RNeasy Plus mini kit (Qiagen, Korea, Ltd.) was used to extract total RNA from a cell eluent and bone marrow cells. A kit produced by Clontech (Mountain View, Calif.) was used to synthesize cDNA from 5 μg of the total RNA. Further, a Corbett research RG-6000 real-time PCR device was used to perform a real-time quantitative PCR repeatedly for 40 cycles under a condition of 95° C. for 10 minutes; 95° C. for 10 seconds; 58° C. for 15 seconds; and 72° C. for 20 seconds per cycle.
After 1 week, 50 μg/kg of Osteopep1 (PEPTRON) and 100 μl of PBS (Gibco) were intraperitoneally administered every 12 hours twice per day for 3 weeks. […] On the 22nd day, the femurs was separated from the mouse and refrigerated in 80% ethanol. Then, a bone density and a trabecular thickness were measured by micro CT. […]

[6] = system: bone marrow hematopoietic progenitor cells in blood; test: CFU assay: mobilization of bone marrow hematopoietic progenitor cells to blood in osteoporosis model; format: in vivo, mice; conditions: osteoporosis (ovariectomy) models, 50 μg/kg intraperitoneally every 12 hours for 3 weeks; p<0.05
Procedure: After 1 week, 50 μg/kg of Osteopep1 (PEPTRON) and 100 μl of PBS (Gibco) were intraperitoneally administered every 12 hours twice per day for 3 weeks. […] In order to measure the number of bone marrow hematopoietic progenitor cells in blood of a mouse, CFU assays were conducted. A mouse was anesthetized, and then, 500 μl to 700 μl of blood was collected from the heart into a heparin tube. Then, the collected blood was put into an ammonium chloride solution (Stem Cell Technologies, Inc. 1:10) and then placed in ice for 15 minutes, and red blood cells were removed. The resultant solution was shaken every 2 to 3 minutes to remove red blood cells well, and then, centrifuged for 7 minutes at 1000 rpm. The supernatant was removed, and the resultant solution was washed with IMDM (Gibco) supplied with 2% fetal bovine serum (FBS) (Gibco). The washed cells (3×10^5 per mouse) were divided into three 35 mm dishes (1×10^5 per dish) respectively including methylcellulose-based media (Methocult, Stem cell), and then, cultured for 2 weeks. Then, the number of colonies in the flask was counted. In order to find out effects of administration of Osteopep1 of the present disclosure on bone marrow hematopoietic progenitor cells mobilized to blood in an osteoporosis model, an experiment was conducted in the same manner as the method of Example 1-4.

[7] = system: bone marrow hematopoietic stem cells; test: Mobilization of bone marrow hematopoietic stem cells to blood in osteoporosis model, by markers of bone marrow hematopoietic stem cells; format: in vivo, mice; conditions: osteoporosis (ovariectomy) model, 50 μg/kg intraperitoneally every 12 hours for 3 weeks; p<0.05
Procedure: FIG. 9 is a diagram illustrating a mobilization level of bone marrow hematopoietic stem cells to blood when Osteopep1 is administered to an osteoporosis model, by using a marker of a bone marrow hematopoietic stem cell.
as §3
In order to check whether mobilization of bone marrow hematopoietic progenitor cells to blood in an osteoporosis model is induced by Osteopep1 of the present disclosure, the following experiment was conducted.

bone (femurs) = test: Micro CT of femurs: bone density and trabecular thickness in osteoporosis (ovariectomy) model and control mice; format: in vivo; conditions: osteoporosis model mouse, 50 μg/kg intraperitoneally twice per day for 3 weeks, compared with PBS; micro CT on 22nd day
Procedure: After 1 week, 50 μg/kg of Osteopep1 (PEPTRON) and 100 μl of PBS (Gibco) were intraperitoneally administered every 12 hours twice per day for 3 weeks. […] The femurs was separated from the mouse and refrigerated in 80% ethanol. Then, for micro CT scanning, a tissue having a thickness of 40 μm was measured with a micro CT scanner (Inveon preclinical CT, Siemens Healthcare, Hoffman Estates, Ill.) under conditions including an exposure time of 600 msec, photon energy of 70 keV, and a current of 400 μA. In order to measure a bone density (bone volume/total volume) and a trabecular thickness, pieces each having a volume of 2.5×0.5×0 5 mm^3 from the same site of each group were measured with Siemens Inveon Software. […] After 1 week, 50 μg/kg of Osteopep1 (PEPTRON) and 100 μl of PBS (Gibco) were intraperitoneally administered every 12 hours twice per day for 3 weeks. […] On the 22nd day, the femurs was separated from the mouse and refrigerated in 80% ethanol. Then, a bone density and a trabecular thickness were measured by micro CT.

Sequence: DNPGEDAPAEDMARY [Osteopep1]
- expression levels of the main adhesion factors Sdf-1a, Kitl, Angpt1, and Spp1 [1]: decreased
- mobilization of bone marrow hematopoietic progenitor cells to blood (CFU assay) [2]: increased
- bone marrow hematopoietic stem cells marked by Lineage, Sca-1, and c-kit in bone marrow (FACs) [3]: decreased
- expression levels of Sdf-1a, Kitl, and Angpt1 in osteoblasts [4]: concentration-dependently decreased
- expression levels of the adhesion factors (Sdf-1a, Kitl, Angpt1, IL7, Vcam1, Spp1) for hematopoietic stem cells [5]: decreased
- mobilization of bone marrow hematopoietic progenitor cells to blood (CFU assay) [6]: increased
- mobilized amounts of the markers of bone marrow hematopoietic stem cells [7]: increased
- bone density percentage (BV/TV, %) (bone (femurs)): increased
- trabecular thickness (mm) (bone (femurs)): increased
